Reference: PubChem BioAssay AID1963869 (Molecular Pharmacology Branch, DTP, NCI, 2024)

Tested on: KRAS patient-derived spheroids with HUVEC/MSC, viability
Assay: Anticancer human tumor 323965-272-R-J2-PDC patient-derived pancreatic carcinoma cell line growth inhibition [KRAS2]
Conditions: for IC50: curve of first compound; for viability, T/C: stronger effect = lower value
Procedure, shortened: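 Combination screen of spheroid viability in tumor-cell co-cultures with endothelial (HUVEC) and mesenchymal stem cell stroma. Each agent was tested in half-log dilutions, topping at clinical Cmax or at 10 microM without a known Cmax.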

[1] = second compound 0.1 µM, first compound 0.0316 µM
[2] = second compound 0.1 µM, first compound 0.1 µM
[3] = second compound 0.1 µM, first compound 0.316 µM
[4] = second compound 0.1 µM, first compound 1 µM
[5] = second compound 0.1 µM, first compound 3.16 µM
[6] = second compound 0.1 µM, first compound 10 µM
[7] = second compound 0.316 µM, first compound 0.0316 µM
[8] = second compound 0.316 µM, first compound 0.1 µM
[9] = second compound 0.316 µM, first compound 0.316 µM
[10] = second compound 0.316 µM, first compound 1 µM
[11] = second compound 0.316 µM, first compound 3.16 µM
[12] = second compound 0.316 µM, first compound 10 µM
[13] = second compound 1 µM, first compound 0.0316 µM
[14] = second compound 1 µM, first compound 0.1 µM
[15] = second compound 1 µM, first compound 0.316 µM
[16] = second compound 1 µM, first compound 1 µM
[17] = second compound 1 µM, first compound 3.16 µM
[18] = second compound 1 µM, first compound 10 µM
[19] = second compound 3.16 µM, first compound 0.0316 µM
[20] = second compound 3.16 µM, first compound 0.1 µM
[21] = second compound 3.16 µM, first compound 0.316 µM
[22] = second compound 3.16 µM, first compound 1 µM
[23] = second compound 3.16 µM, first compound 3.16 µM
[24] = second compound 3.16 µM, first compound 10 µM
[25] = second compound 10 µM, first compound 0.0316 µM
[26] = second compound 10 µM, first compound 0.1 µM
[27] = second compound 10 µM, first compound 0.316 µM
[28] = second compound 10 µM, first compound 1 µM
[29] = second compound 10 µM, first compound 3.16 µM
[30] = second compound 10 µM, first compound 10 µM
[31] = second compound 0.1 µM, first compound 0.000316 µM
[32] = second compound 0.1 µM, first compound 0.001 µM
[33] = second compound 0.1 µM, first compound 0.00316 µM
[34] = second compound 0.1 µM, first compound 0.01 µM
[35] = second compound 0.316 µM, first compound 0.000316 µM
[36] = second compound 0.316 µM, first compound 0.001 µM
[37] = second compound 0.316 µM, first compound 0.00316 µM
[38] = second compound 0.316 µM, first compound 0.01 µM
[39] = second compound 1 µM, first compound 0.000316 µM
[40] = second compound 1 µM, first compound 0.001 µM
[41] = second compound 1 µM, first compound 0.00316 µM
[42] = second compound 1 µM, first compound 0.01 µM
[43] = second compound 3.16 µM, first compound 0.000316 µM
[44] = second compound 3.16 µM, first compound 0.001 µM
[45] = second compound 3.16 µM, first compound 0.00316 µM
[46] = second compound 3.16 µM, first compound 0.01 µM
[47] = second compound 10 µM, first compound 0.000316 µM
[48] = second compound 10 µM, first compound 0.001 µM
[49] = second compound 10 µM, first compound 0.00316 µM
[50] = second compound 10 µM, first compound 0.01 µM
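Note: spheroids exposed to agents for 7 days.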
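Throughout, for viability, T/C: 100% = DMSO vehicle control viability.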

O=C(c1cc(Cc2n[nH]c(=O)c3ccccc23)ccc1F)N1CCN(C(=O)C2CC2)CC1 + COc1cc2nc(C)nc(NC(C)c3cc(N)cc(C(F)(F)F)c3)c2cc1OC1CCOC1
IC50 (second compound 0.1 µM): > 10000 nM | IC50 (second compound 0.316 µM): > 10000 nM | IC50 (second compound 1 µM): > 10000 nM | IC50 (second compound 3.16 µM): > 10000 nM | IC50 (second compound 10 µM): > 10000 nM | viability, T/C [1]: 101% | viability, T/C [2]: 107% | viability, T/C [3]: 94.1% | viability, T/C [4]: 98.8% | viability, T/C [5]: 88% | viability, T/C [6]: 59.1% | viability, T/C [7]: 90.3% | viability, T/C [8]: 81% | viability, T/C [9]: 83.5% | viability, T/C [10]: 84.9% | viability, T/C [11]: 78.9% | viability, T/C [12]: 57.7% | viability, T/C [13]: 102% | viability, T/C [14]: 103% | viability, T/C [15]: 95.5% | viability, T/C [16]: 99% | viability, T/C [17]: 94.6% | viability, T/C [18]: 50.2% | viability, T/C [19]: 81.5% | viability, T/C [20]: 82.2% | viability, T/C [21]: 76.1% | viability, T/C [22]: 83.2% | viability, T/C [23]: 76.9% | viability, T/C [24]: 52.5% | viability, T/C [25]: 76.7% | viability, T/C [26]: 76.3% | viability, T/C [27]: 78.8% | viability, T/C [28]: 75.8% | viability, T/C [29]: 75.9% | viability, T/C [30]: 51.2%

CCNC(=O)CC1N=C(c2ccc(Cl)cc2)c2cc(OC)ccc2-n2c(C)nnc21 (stereo not given) + CNCc1ccccc1-c1csc(C(C)Nc2nc(C)nc3cc(OC)c(OC)cc23)c1
IC50 (second compound 0.1 µM): 370 nM | IC50 (second compound 0.316 µM): 332 nM | IC50 (second compound 1 µM): 466 nM | IC50 (second compound 3.16 µM): 436 nM | IC50 (second compound 10 µM): < 31.6 nM | viability, T/C [1]: 94.1% | viability, T/C [2]: 75.7% | viability, T/C [3]: 51.9% | viability, T/C [4]: 38.5% | viability, T/C [5]: 33.7% | viability, T/C [6]: 33.5% | viability, T/C [7]: 87.2% | viability, T/C [8]: 77.7% | viability, T/C [9]: 50.3% | viability, T/C [10]: 36.4% | viability, T/C [11]: 34.5% | viability, T/C [12]: 31.6% | viability, T/C [13]: 94.8% | viability, T/C [14]: 80.2% | viability, T/C [15]: 54.8% | viability, T/C [16]: 40.1% | viability, T/C [17]: 34.2% | viability, T/C [18]: 32.4% | viability, T/C [19]: 98.9% | viability, T/C [20]: 80.7% | viability, T/C [21]: 55.4% | viability, T/C [22]: 36.3% | viability, T/C [23]: 26.2% | viability, T/C [24]: 24.1% | viability, T/C [25]: 0.5% | viability, T/C [26]: 0.19% | viability, T/C [27]: 0.17% | viability, T/C [28]: 0.15% | viability, T/C [29]: 0.21% | viability, T/C [30]: 0.3%

CC(=O)Nc1cccc(-n2c(=O)n(C3CC3)c(=O)c3c(Nc4ccc(I)cc4F)n(C)c(=O)c(C)c32)c1 + CNCc1ccccc1-c1csc(C(C)Nc2nc(C)nc3cc(OC)c(OC)cc23)c1
IC50 (second compound 0.1 µM): 3.71 nM | IC50 (second compound 0.316 µM): 2.91 nM | IC50 (second compound 1 µM): 4.97 nM | IC50 (second compound 3.16 µM): 8.68 nM | IC50 (second compound 10 µM): < 0.1 nM | viability, T/C (second compound 0.1 µM, first compound 0.0001 µM): 88% | viability, T/C [31]: 83.9% | viability, T/C [32]: 60.7% | viability, T/C [33]: 52.4% | viability, T/C [34]: 41.2% | viability, T/C [1]: 27.7% | viability, T/C (second compound 0.316 µM, first compound 0.0001 µM): 85.3% | viability, T/C [35]: 68.7% | viability, T/C [36]: 62.7% | viability, T/C [37]: 49% | viability, T/C [38]: 38.7% | viability, T/C [7]: 24.8% | viability, T/C (second compound 1 µM, first compound 0.0001 µM): 89.8% | viability, T/C [39]: 81.6% | viability, T/C [40]: 67.7% | viability, T/C [41]: 55.5% | viability, T/C [42]: 44% | viability, T/C [13]: 21.3% | viability, T/C (second compound 3.16 µM, first compound 0.0001 µM): 95.6% | viability, T/C [43]: 88.4% | viability, T/C [44]: 77.6% | viability, T/C [45]: 64.3% | viability, T/C [46]: 48.4% | viability, T/C [19]: 28.8% | viability, T/C (second compound 10 µM, first compound 0.0001 µM): 7.63% | viability, T/C [47]: 0.79% | viability, T/C [48]: 6.13% | viability, T/C [49]: 0.2% | viability, T/C [50]: 0.19% | viability, T/C [25]: 1.14%

CC(C)n1nc(-c2ccc3oc(N)nc3c2)c2c(N)ncnc21 + COc1cc2nc(C)nc(NC(C)c3cc(N)cc(C(F)(F)F)c3)c2cc1OC1CCOC1
IC50 (second compound 0.1 µM): 1.83 nM | IC50 (second compound 0.316 µM): 0.955 nM | IC50 (second compound 1 µM): 0.736 nM | IC50 (second compound 3.16 µM): 0.769 nM | IC50 (second compound 10 µM): 1.41 nM | viability, T/C [31]: 67.1% | viability, T/C [32]: 60.1% | viability, T/C [33]: 40.8% | viability, T/C [34]: 26.4% | viability, T/C [1]: 19% | viability, T/C [2]: 14.5% | viability, T/C [35]: 64.5% | viability, T/C [36]: 48.2% | viability, T/C [37]: 37.1% | viability, T/C [38]: 23.8% | viability, T/C [7]: 17.4% | viability, T/C [8]: 15.7% | viability, T/C [39]: 58.1% | viability, T/C [40]: 47.6% | viability, T/C [41]: 33.1% | viability, T/C [42]: 24.8% | viability, T/C [13]: 16.7% | viability, T/C [14]: 14% | viability, T/C [43]: 54.4% | viability, T/C [44]: 49.4% | viability, T/C [45]: 30.2% | viability, T/C [46]: 17.7% | viability, T/C [19]: 12.9% | viability, T/C [20]: 11.8% | viability, T/C [47]: 58.5% | viability, T/C [48]: 60.2% | viability, T/C [49]: 32.3% | viability, T/C [50]: 18.4% | viability, T/C [25]: 9.07% | viability, T/C [26]: 8.86%
